Data: publication PMC7503713, “GANT61 Reduces Hedgehog Molecule (GLI1) Expression and Promotes Apoptosis in Metastatic Oral Squamous Cell Carcinoma Cells” (International Journal of Molecular Sciences, 2020)

Tests used:
Type in all cases: cell-based, human
CAL27 = assay: alamarBlue cytotoxicity assay, CAL27
Method: (§1) To assess the cytotoxicity of the GLI inhibitor GANT61 (Sigma-Aldrich, St. Louis, MO, USA) in tumor and non-tumor cell lines, an alamarBlue assay (Sigma-Aldrich Chemical Co, St. Louis, MO, USA) was performed after 72 h of exposure to the inhibitor, as described by Ahmed et al., 1994 [46]. Cells were distributed on 96-well plates at a density of 7 × 10^4 cells/mL for adhered cells, and 3 × 10^5 cells/mL for cells in suspension. All tested compounds were dissolved in DMSO, added to wells containing 100 µL of cells in complete medium, and then incubated for 72 h. Eight concentrations of GANT61 (0.19 to 50 µg/mL), Doxorubicin (Laboratory IMA S.A.I.C., Buenos Aires, Argentina), and 5-Fluorouracil (5-FU, Sigma-Aldrich, St. Louis, MO, USA), both used as positive controls at concentrations ranging from 0.03 to 5 µg/mL, were added to respective wells. Cells treated with the vehicle (0.5% DMSO) used to dilute the tested compounds were used as negative controls. Before the end of the incubation period (4 h for cell lines and 24 h for PBMCs), 20 µL of alamarBlue stock solution (resazurin, Sigma-Aldrich, St. Louis, MO, USA) was added to each well. Absorbance was measured at 570 nm (reduced) and 595 nm (oxidized) wavelengths, using a Spectramax 190 plate reader (Molecular Devices; Sunnyvale, CA, USA).
(§2) Statistical analyses were performed, using GraphPad Prism v. 6.03 (GraphPad Software, Inc., San Diego, USA). Data were analyzed according to distribution along the normal Gaussian curve. IC50 values were obtained through non-linear regression, using results from three independent experiments carried out in duplicate. Differences between groups resulting from in vitro assays were evaluated by ANOVA (analysis of variance) testing, followed by the Student–Newman–Keuls test. This study considered a level of significance, corresponding to alpha (α) or “p” value, when results were less than or equal to 5%.

SCC9 = assay: alamarBlue cytotoxicity assay, SCC9
Method: as §1, §2

CAF 1 = assay: alamarBlue cytotoxicity assay, cancer-associated fibroblasts CAF 1; conditions: CAF 1, alamarBlue, 72 h of incubation
Method: Two cancer-associated fibroblast populations (CAF1 and CAF2) were obtained as described by Sobral et al. (2011), from fragments of squamous cell carcinoma of the tongue that were removed from patients seen at the UNICAMP School of Dentistry in Piracicaba, São Paulo, Brazil.
Specimens were washed with PBS, fragmented, and placed in 25 cm^2 cell culture flasks containing 1 mL of DMEM medium supplemented with 10% FBS and an antibiotic, and then maintained in an incubator, at 37 °C, under 5% CO2. Cell growth was monitored daily, and the medium was replaced every 2–3 days. […] Type I collagen production as assessed by ELISA was also used as a marker of myofibroblast activity. Both CAF1 and CAF2 primary populations were maintained for a maximum of 12 passages, with CAF phenotype maintenance evaluated through immunocytochemical staining for the α-SMA antibody after each two passages. […]
To assess the cytotoxicity of the GLI inhibitor GANT61 (Sigma-Aldrich, St. Louis, MO, USA) in tumor and non-tumor cell lines, an alamarBlue assay (Sigma-Aldrich Chemical Co, St. Louis, MO, USA) was performed after 72 h of exposure to the inhibitor, as described by Ahmed et al., 1994 [46]. […] Absorbance was measured at 570 nm (reduced) and 595 nm (oxidized) wavelengths, using a Spectramax 190 plate reader (Molecular Devices; Sunnyvale, CA, USA). […]

PBMC = assay: alamarBlue cytotoxicity assay, PBMC; conditions: 72 h of incubation
Method: Human peripheral blood mononuclear cells (PBMC) lymphocytes and monocytes) were obtained from the peripheral blood of healthy, non-smoking volunteers aged 25–35 years. None of the volunteers had used any type of drug or medication for at least 15 days prior to collection. Blood collection (5 mL) was performed in heparinized vials by trained professionals at the Laboratory of Tissue Engineering and Immunopharmacology (LETI, IGM-FIOCRUZ, Salvador, Brazil), using sterile disposable syringes. PBMCs were isolated by a standard protocol described by Dias et al. (2018). The institutional review board of the Gonçalo Moniz Institution, Oswaldo Cruz Foundation (IGM-FIOCRUZ), in Salvador, Bahia, Brazil, approved all experimental protocols (No.031019/2013). All participants provided written informed consent prior to participation in the study.
To assess the cytotoxicity of the GLI inhibitor GANT61 (Sigma-Aldrich, St. Louis, MO, USA) in tumor and non-tumor cell lines, an alamarBlue assay (Sigma-Aldrich Chemical Co, St. Louis, MO, USA) was performed after 72 h of exposure to the inhibitor, as described by Ahmed et al., 1994 [46]. Cells were distributed on 96-well plates at a density of 7 × 10^4 cells/mL for adhered cells, and 3 × 10^5 cells/mL for cells in suspension. All tested compounds were dissolved in DMSO, added to wells containing 100 µL of cells in complete medium, and then incubated for 72 h. […] Absorbance was measured at 570 nm (reduced) and 595 nm (oxidized) wavelengths, using a Spectramax 190 plate reader (Molecular Devices; Sunnyvale, CA, USA).
Statistical analyses were performed, using GraphPad Prism v. […] Data were analyzed according to distribution along the normal Gaussian curve. […] Differences between groups resulting from in vitro assays were evaluated by ANOVA (analysis of variance) testing, followed by the Student–Newman–Keuls test. […]

HSC3 cells [1] = assay: Trypan blue exclusion cell viability assay
Method: (§3) To study the effects of GANT61 on HSC3 cell viability, cycle, and death patterns, 4 mL of cellular solution (containing 0.7 × 10^5 cells/mL) was placed on 6-well plates and incubated overnight, to allow adhesion. […] For cell cycle analysis, the effects of GANT61 on HSC3 cells were also evaluated after 12 h of treatment. Negative controls were treated with the vehicle (0.2% DMSO) used to dilute the GLI inhibitor, and 5-fluorouracil (5-FU, 17 μM) was used as a positive control. All experiments were carried out in duplicate and repeated no less than three times. Cell viability was determined by the trypan blue exclusion method, in which 90 μL aliquots were collected at several incubation periods, stained with 10 μL trypan blue, and counted in a Neubauer chamber, under optical microscopy, at 20× magnification (Olympus CX41 Olympus, Tokyo, Japan).

HSC3 cells [2] = assay: Cell cycle and internucleosomal DNA fragmentation by flow cytometry (PI); conditions: for cells in S and G2/M phases: ≥48 h
Method: as §3
Cellular nuclear DNA content was evaluated by flow cytometry, to differentiate among cell cycle phases, using PI (propidium iodide) as a fluorogenic agent. Following incubation with the GLI inhibitor, the supernatant was collected, and wells were washed with saline. Next, cells were trypsinized, then centrifuged (295× g for 5 min) together with the supernatant. Permeabilization was carried out by using a solution (300 µL) containing 0.1% triton X-100, 0.1% sodium citrate and 2 μg/mL of PI and 100 µg/mL RNase in distilled water, placed under dark conditions, at room temperature, for 30 min. Cells were then acquired (10,000 events/sample) and analyzed on a BD LSRFortessa flow cytometer, using BD FACSDiva software version 6.2 (Becton Dickinson Biosciences, San José, CA, USA). Proportions of fragmented internucleosomal DNA and cell cycle phases were determined by using Flowjo software v. 10 (Flowjo LCC, Ashland, OR, USA). Cells in sub-G1 phase were considered to present internucleosomal DNA fragmentation. Cellular debris was omitted from our analysis.

Compound | IC50 (CAL27; Homo sapiens, CAL-27, 72 h of incubation) [µM] | IC50 (SCC9; Homo sapiens, SCC-9, 72 h of incubation) [µM] | IC50 (CAF 1; Homo sapiens, Fibroblast) [µM] | IC50 (PBMC; Homo sapiens) [µM] | number of viable cells (HSC3 cells [1]; 17 µM, all incubation times) | cells in S and G2/M phases (HSC3 cells [2]; 5-FU positive control) | IC50 (CAL27; 72 h of incubation) [µM] | IC50 (SCC9; 72 h of incubation) [µM] | IC50 (CAF 1) [µM] | IC50 (PBMC) [µM] | viability of HSC3 cells (HSC3 cells [1]; 18 and 36 µM, 24, 48 and 72 h, vs 0.2% DMSO) | cells in the sub-G0/G1 phase (HSC3 cells [2]; 36 µM, 24 and 48 h, vs DMSO 0.2%) | percentage of HSC3 cells in the sub-G0/G1 phase (HSC3 cells [2]; 36 µM, 12 h) | number of cells in the G0-G1 phase (HSC3 cells [2]; 36 µM, from 12 h forward) | cells in S and G2/M phases (HSC3 cells [2]; 18 and 36 µM)
O=c1[nH]cc(F)c(=O)[nH]1 [5-FU, 5-fluorouracil] | 30.8 | 143 | > 192 | > 192 | reduced the number of viable cells | significantly lower numbers of cells |  |  |  |  |  |  |  |  | 
CN(C)c1ccccc1CN1CCCN(Cc2ccccc2N(C)C)C1c1ccncc1 [GANT61] |  |  |  |  |  |  | > 116 | 83.5 | 3.67 | 87.5 | significantly reduce the viability | significantly higher numbers of cells | significant increase | significant decrease | significantly lower numbers of cells
